The source of these data is US7101844B2, “Cytoplasmic transduction peptides and uses thereof” (Creagene, Inc., priority 2002, dated 2006).

Assay [1] deals with HeLa cells. Kind of assay: Quantitative analysis of the membrane permeability of CTP-β-gal (β-gal activity of lysates of trypsinized cells). It is filed as cell-based. Conditions: incubation for 20 hr. The method, then: For the quantitatation of the permeability of each CPP-fusion protein, HeLa cells were treated with PTD, MTS and CTP508, 509, 511, 512, 513 and 514, CPP-β-gal fusion proteins for 20 hr as described above, and the cells were trypsinized, followed by measuring the amounts of fusion protein imported into cells. Trypsin-treated cells were washed twice with 10% FBS-containing DMEM (high glucose) to inactivate any residual trypsin activity, and then washed once with 1× PBS. The cells collected by centrifugation were resuspended in a 0.9% Triton-X 100 solution, incubated for 10 min at room temperature to lyse cells, and then the supernatant of each lysate was obtained by centrifugation at 12000 rpm for 2 min. The β-gal activity of each sample was measured at 570 nm using enhanced β-gal assay kit (GTS Inc, USA) and an ELISA reader.

Assay [2] concerns HeLa cells. Kind of assay: Transduction potential of FITC-labeled peptides by FACS. Conditions: FITC-labeled peptide. It is filed as cell-based. An excerpt: It has been shown by trypsin treatment that the transduction potential of the peptides known so far is distorted presumably due to the influence of cell fixation (46). Therefore, to verify that the CTP-β-gal of this invention has genuine transduction potential, trypsinization steps were included in the experiments as described above. At this time, since the activity of CTP per se may be affected by its fusion partner β-gal, CTP labeled with fluorescent molecule instead of β-gal was examined for its transduction capacity into cells. HeLa cells were treated with CTP-FITC and then trypsinized prior to harvest. The amounts of the peptides transduced into the cells were measured by FACS (Fluorescence-activated cell sorter) analysis with FACSCalibur (Becton Dickison, USA).
HeLa cells were inoculated into 12-well plates at a density of 2×10^5/ml and cultured for 1 day at 37° C. […] The cells were washed twice and the fluorescent intensity of each sample was measured by FACS.
In order to examine the transduction potential of peptides at different concentrations, cells were treated for 2 hr with peptides with increasing concentrations of peptides, and then trypsinized before examination. The fluorescent intensity in the cells was measured by FACS.
(Flow cytometry measures light scatter and fluorescence of single cells or particles in a stream.)

Assay [3] concerns HeLa, L929, RENCA, Jurkat cell lines and splenocytes. As to the kind of experiment: Transduction potential of CTP in various cell types. It is filed as cell-based, human, mouse. Conditions: FITC-labeled peptide. The protocol:
The examples described above analyzed the transduction potential solely by the use of HeLa cells. In this Example, the transduction potential of CTP was evaluated with other cell types including mouse cell lines (mouse fibroblast L929 and mouse renal cancer cell line RENCA), human lymphoid T cell line (Jurkat cells) and primary mouse splenocytes.

Assay [4] deals with HeLa cells. Kind of assay: Transduction potential of CTP-β-gal following treatment with trypsin (staining). Conditions: 50 μg/ml, 20 hr, trypsin before fixation. The class given is cell-based. The protocol: HeLa cells were cultured for 1 day in DMEM (high glucose) at a density of 2×10^5/ml in 48-well plates. Cells were washed once with 1× PBS, and then incubated further for additional 20 hr in OPTI-MEM containing PTD-β-gal, MTS-β-gal, CTP501-β-gal or CTP514-β-gal, respectively, at a concentration of 50 μg/ml. Thereafter, the cells were treated with trypsin-EDTA (10×) for 3 min at 37° C. to remove the CPP-β-gal attached to the cell surface, and then rinsed twice with 1× PBS, followed by fixing with a fixation solution for 10 min at room temperature. After washing twice with 1× PBS, the cells were stained with a staining solution for 2 hr at 37° C. and photographed under a microscope (FIG. 6b).

Regarding “CTP512: CTP (2G4R8R9R), sequence YGRRARRRRRR; representative CTP used from Example 5-4 on”, the “transduction into HeLa cells” value with HeLa cells [1] is given as “much higher transduction potential than either the PTD or the MTS”. The “transduction potential at the same concentrations” value in the assay on HeLa cells [2] (2 hr, trypsinized) was “significantly higher transduction potential than either PTD or MTS”. The “transduction potential over time” value in the assay with HeLa cells [2] (trypsinized cells, FACS) is “higher transduction potential than the PTD in all period of time”. For the same substance, the “transduction potential in various cell types” value in assay [3] is listed as “highest transduction potential”. The “β-gal activity transduced into cells” value in the assay with HeLa cells [4] was “much more efficient to transduce β-gal into cells than either PTD or MTS”.
